A word on the IC50: it is the point on the concentration scale where inhibition reaches its midpoint.

SMILES strings stand for the structures.

In one assay the test system is U937 cells. As to the kind of experiment: U937 cell necroptosis assay (TNFa + zVAD, CellTiter-Glo recovery). The class given is cell-based. Particulars: Homo sapiens, U-937, 18 h, TNFa 2 ng/mL + zVAD-fmk, read-out: U937 Zvad TNF CTG Recovery, U937, TNFa + zVAD (IC50). The essentials: (§1)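 Human U937 (50K/well, 60 uM zVAD-fmk medium, plated same day) or murine L929 (10K/well, plated 18 h, then 40 uM zVAD-fmk medium) were grown in RPMI with 10% FBS. Both were pretreated with compound for 1 h at 37 °C before TNFa at 2 ng/mL final. Viability was read by CellTiter-Glo luminescence after 18 h.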
On the technique in general: In ATP-based viability assays light output follows the ATP content of the culture.

The subject of the next assay is L929 cells. As to the kind of experiment: L929 cell necroptosis assay (TNFa + zVAD, CellTiter-Glo recovery). The assay is classed as cell-based, murine. Particulars: Mus musculus, L929, 18 h, TNFa 2 ng/mL + zVAD-fmk, read-out: L929-CTG-recovery, L929, TNFa + zVAD (IC50). Put shortly: as §1
In the next assay the target is T1, RIPK1 (Homo sapiens, UniProt Q13546).
T1 sequence (Q13546 1-671): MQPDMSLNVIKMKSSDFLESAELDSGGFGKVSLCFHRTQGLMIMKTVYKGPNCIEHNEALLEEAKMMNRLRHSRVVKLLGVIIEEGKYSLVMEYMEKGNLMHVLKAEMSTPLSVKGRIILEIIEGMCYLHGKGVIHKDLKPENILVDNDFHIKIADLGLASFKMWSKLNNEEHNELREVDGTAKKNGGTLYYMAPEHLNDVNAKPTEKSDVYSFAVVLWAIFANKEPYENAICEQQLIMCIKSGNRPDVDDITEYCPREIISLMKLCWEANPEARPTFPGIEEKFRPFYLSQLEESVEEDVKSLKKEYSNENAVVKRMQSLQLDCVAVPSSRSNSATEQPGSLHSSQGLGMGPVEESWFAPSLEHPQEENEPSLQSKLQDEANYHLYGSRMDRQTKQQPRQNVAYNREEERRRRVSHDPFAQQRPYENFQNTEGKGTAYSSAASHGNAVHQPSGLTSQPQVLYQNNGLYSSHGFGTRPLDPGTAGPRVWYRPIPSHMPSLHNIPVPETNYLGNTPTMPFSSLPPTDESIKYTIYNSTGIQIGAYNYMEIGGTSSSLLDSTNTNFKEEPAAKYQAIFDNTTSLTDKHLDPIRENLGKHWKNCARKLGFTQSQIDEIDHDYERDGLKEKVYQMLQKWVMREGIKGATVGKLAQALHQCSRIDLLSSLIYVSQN
Kind of assay: RIPK1 ADP-Glo biochemical kinase assay. Particulars: read-out: RIPK1 ADP-Glo Kinase (IC50). Put shortly:
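RIPK1 at 31 ng/well in Tris pH 7.4 buffer with MgCl2, BSA, DTT and MnCl2, reacted with compounds (duplicate) for 30 min at 30 °C. ADP formed detected by ADP-Glo: 40 min stop/depletion, then 30 min detection reagent at room temperature; luminescence read.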

Turning to `CN1C(=O)[C@@H](NC(=O)c2cc(Oc3cnn(C)c3)ccn2)COc2ccc(C#CC(C)(C)O)cc21` [I-126, (S)—N-(7-(3-hydroxy-3-methylbut-1-yn-1-yl)-5-methyl-4-oxo-2,3,4,5-tetrahydrobenzo[b][1,4]oxazepin-3-yl)-4-((1-methyl-1H-pyrazol-4-yl)oxy)picolinamide], the results for the IC50 in the assay on U937 cells, in the assay with L929 cells and on RIPK1 were 8.9 nM, 155 nM and 15.3 nM, respectively.

Regarding `Cc1nc(Cc2ccnc(C(=O)N[C@H]3COc4ccc(C#CC5COC5)cc4N(C)C3=O)c2)cs1` [I-85, (S)—N-(5-methyl-7-(oxetan-3-ylethynyl)-4-oxo-2,3,4,5-tetrahydrobenzo[b][1,4]oxazepin-3-yl)-4-((2-methylthiazol-4-yl)methyl)picolinamide], the IC50 in the assay with U937 cells amounted to 15.8 nM; in the assay with L929 cells it was 252 nM; on RIPK1, 20.6 nM.

Take `CN1C(=O)[C@@H](NC(=O)c2cc(Cc3cccc(F)n3)ccn2)COc2ccc(C#CC3CCOCC3)cc21` [I-53, (S)-4-((6-fluoropyridin-2-yl)methyl)-N-(5-methyl-4-oxo-7-((tetrahydro-2H-pyran-4-yl)ethynyl)-2,3,4,5-tetrahydrobenzo[b][1,4]oxazepin-3-yl)picolinamide]: the IC50 in the assay on U937 cells was determined as 3 nM; in the assay on L929 cells it was 114 nM; at RIPK1 it was 35.1 nM.

With `CN1C(=O)[C@@H](NC(=O)n2cc(Cc3cccc(F)n3)cn2)COc2ccc(C#CC(O)C(F)(F)F)cc21` (mixture of isomers) [I-105, (±)-4-((6-Fluoropyridin-2-yl)methyl)-N-((3S)-5-methyl-4-oxo-7-(4,4,4-trifluoro-3-hydroxybut-1-yn-1-yl)-2,3,4,5-tetrahydrobenzo[b][1,4]oxazepin-3-yl)-1H-pyrazole-1-carboxamide], the IC50 in the assay with U937 cells is 8.6 nM; in the assay on L929 cells it was 1540 nM; at RIPK1, 16.8 nM.

Regarding `CN1C(=O)[C@@H](NC(=O)c2cc(Oc3cccnc3)ccn2)COc2ccc(C#CC3(O)COC3)cc21` [I-57, (S)—N-(7-((3-hydroxyoxetan-3-yl)ethynyl)-5-methyl-4-oxo-2,3,4,5-tetrahydrobenzo[b][1,4]oxazepin-3-yl)-4-(pyridin-3-yloxy)picolinamide], the IC50 was 1.6 nM in the assay with U937 cells, 437 nM in the assay with L929 cells and 18.1 nM on RIPK1.

`CN1C(=O)[C@@H](NC(=O)c2cc(Cn3cccn3)ccn2)COc2ccc(C#CC3(O)COC3)cc21` [I-70, (S)-4-((1H-pyrazol-1-yl)methyl)-N-(7-((3-hydroxyoxetan-3-yl)ethynyl)-5-methyl-4-oxo-2,3,4,5-tetrahydrobenzo[b][1,4]oxazepin-3-yl)picolinamide]: the IC50 worked out at 281 nM in the assay with U937 cells, 2640 nM with L929 cells and 44.9 nM on RIPK1.

The values are drawn from patent US12156880B2, “Heterocyclic RIP1 kinase inhibitors” (Rigel Pharmaceuticals, Inc., priority 2021, dated 2024).
